# Publication PMC4303209, “A novel phosphatidylinositol 3-kinase (PI3K) inhibitor directs a potent FOXO-dependent, p53-independent cell cycle arrest phenotype characterized by the differential induction of a subset of FOXO-regulated genes” (Breast Cancer Research : BCR, 2014)
# System: MCF-7 breast cancer cells
# Assay: Microarray gene expression analysis (Agilent whole human genome 4 x 44K; compound vs DMSO, LIMMA log2 fold change)
# Assay type: cell-based
# Conditions: cell cycle genes
smiles,measurement,setting,value
Oc1cccc(-c2nc(N3CCOCC3)c3oc4ncccc4c3n2)c1 [PI-103],STAT5A log2FC,Gene 6776,0.39
same,STAT5B log2FC,Gene 6777,0.11
same,AURKA log2FC,Gene 6790,-0.02
same,STK10 log2FC,Gene 6793,-0.32
same,AURKC log2FC,Gene 6795,0.0218
same,SUV39H1 log2FC,Gene 6839,-0.50
same,TACC1 log2FC,Gene 6867,0.0342
same,ADAM17 log2FC,Gene 6868,0.53
same,TAF1 log2FC,Gene 6872,0.15
same,TAL1 log2FC,Gene 6886,-0.57
same,TBX3 log2FC,Gene 6926,-0.69
same,TCF3 log2FC,Gene 6929,0.0643
same,DYNLT3 log2FC,Gene 6990,-0.24
same,DYNLT1 log2FC,Gene 6993,-0.03
same,TERF1 log2FC,Gene 7013,0.38
same,TERF2 log2FC,Gene 7014,-0.16
same,TFAP4 log2FC,Gene 7023,0.39
same,NR2F2 log2FC,Gene 7026,0.34
same,TFDP1 log2FC,Gene 7027,-0.56
same,TFDP2 log2FC,Gene 7029,0.41
same,TGFB1 log2FC,Gene 7040,-0.44
same,THBS1 log2FC,Gene 7057,-0.91
same,TNF log2FC,Gene 7124,-1.87
same,TNFAIP3 log2FC,Gene 7128,-0.85
same,TOP2A log2FC,Gene 7153,0.91
same,TOP2B log2FC,Gene 7155,0.99
same,TOP3A log2FC,Gene 7156,-0.05
same,TP53 log2FC,Gene 7157,0.0569
same,TP53BP2 log2FC,Gene 7159,0.35
same,TPR log2FC,Gene 7175,0.74
same,TSC1 log2FC,Gene 7248,0.42
same,TSC2 log2FC,Gene 7249,-0.11
same,TSG101 log2FC,Gene 7251,0.39
same,TTK log2FC,Gene 7272,1.59
same,TUBG1 log2FC,Gene 7283,-0.33
same,UBA52 log2FC,Gene 7311,0.31
same,UBB log2FC,Gene 7314,0.0362
same,UBC log2FC,Gene 7316,0.33
same,UBE2B log2FC,Gene 7320,0.65
same,UBE2D1 log2FC,Gene 7321,0.50
same,UBE2E1 log2FC,Gene 7324,0.0118
same,UBE2I log2FC,Gene 7329,-0.30
same,WEE1 log2FC,Gene 7465,0.0429
same,WNT5A log2FC,Gene 7474,0.13
same,WNT10B log2FC,Gene 7480,-0.49
same,WNT9A log2FC,Gene 7483,0.04
same,XPC log2FC,Gene 7508,0.59
same,XRCC2 log2FC,Gene 7516,-0.60
same,YWHAG log2FC,Gene 7532,-0.88
same,ZNF16 log2FC,Gene 7564,0.34
same,ZBTB17 log2FC,Gene 7709,0.30
same,PTP4A1 log2FC,Gene 7803,-0.61
same,EVI5 log2FC,Gene 7813,0.44
same,ALMS1 log2FC,Gene 7840,0.65
same,NR4A3 log2FC,Gene 8013,0.34
same,NUP214 log2FC,Gene 8021,-0.41
same,FOSL1 log2FC,Gene 8061,-2.53
same,CUL5 log2FC,Gene 8065,-0.23
same,YEATS4 log2FC,Gene 8089,1.06
same,HMGA2 log2FC,Gene 8091,-1.51
same,CHAF1B log2FC,Gene 8208,-0.0543
same,CLTCL1 log2FC,Gene 8218,-0.03
same,USP9X log2FC,Gene 8239,0.62
same,SMC1A log2FC,Gene 8243,0.14
same,CDC7 log2FC,Gene 8317,0.32
same,RAD54L log2FC,Gene 8438,-0.18
same,CUL4B log2FC,Gene 8450,0.75
same,CUL4A log2FC,Gene 8451,0.38
same,CUL1 log2FC,Gene 8454,0.21
same,KLF11 log2FC,Gene 8462,1.20
same,OFD1 log2FC,Gene 8481,0.89
same,PKP4 log2FC,Gene 8502,0.15
same,GAS7 log2FC,Gene 8522,-0.00153
same,DGKZ log2FC,Gene 8525,-0.37
same,CAMK1 log2FC,Gene 8536,-0.0329
same,CDC14B log2FC,Gene 8555,0.10
same,CDK10 log2FC,Gene 8558,0.17
same,MADD log2FC,Gene 8567,0.75
same,DYNLL1 log2FC,Gene 8655,-1.05
same,TNKS log2FC,Gene 8658,0.82
same,BECN1 log2FC,Gene 8678,0.35
same,CDC23 log2FC,Gene 8697,0.30
same,CRADD log2FC,Gene 8738,-0.08
same,CCNK log2FC,Gene 8812,-0.50
same,BANF1 log2FC,Gene 8815,-0.32
same,CDK5R1 log2FC,Gene 8851,-0.33
same,IER3 log2FC,Gene 8870,-2.26
same,SPHK1 log2FC,Gene 8877,-0.42
same,CDC16 log2FC,Gene 8881,0.66
same,CCNA1 log2FC,Gene 8900,0.11
same,TIMELESS log2FC,Gene 8914,0.20
same,PHOX2B log2FC,Gene 8929,-0.0327
same,MBD4 log2FC,Gene 8930,0.29
same,BTRC log2FC,Gene 8945,0.17
same,WASL log2FC,Gene 8976,0.10
same,RNF8 log2FC,Gene 9025,-0.06
same,PRC1 log2FC,Gene 9055,0.34
same,USP2 log2FC,Gene 9099,-0.07
same,USP8 log2FC,Gene 9101,0.76
same,SMC3 log2FC,Gene 9126,1.35
same,EXO1 log2FC,Gene 9156,-0.12
same,ARHGEF2 log2FC,Gene 9181,-0.51
same,ZW10 log2FC,Gene 9183,0.27
same,BUB3 log2FC,Gene 9184,0.44
same,NOLC1 log2FC,Gene 9221,-0.67
same,CCPG1 log2FC,Gene 9236,1.09
same,MAPKAPK2 log2FC,Gene 9261,-0.19
same,PIWIL1 log2FC,Gene 9271,0.0443
same,RECQL5 log2FC,Gene 9400,0.48
same,ROCK2 log2FC,Gene 9475,0.20
same,PSMF1 log2FC,Gene 9491,-0.34
same,VPS4B log2FC,Gene 9525,0.64
same,CLOCK log2FC,Gene 9575,0.03
same,MAD2L1BP log2FC,Gene 9587,-0.27
same,ARHGEF10 log2FC,Gene 9639,0.19
same,MDC1 log2FC,Gene 9656,-0.21
same,CEP135 log2FC,Gene 9662,0.43
same,KIAA0430 log2FC,Gene 9665,0.91
same,CROCC log2FC,Gene 9696,-0.11
same,ESPL1 log2FC,Gene 9700,0.72
same,CEP57 log2FC,Gene 9702,1.20
same,UTP14C log2FC,Gene 9724,0.24
same,KNTC1 log2FC,Gene 9735,0.58
same,RASSF2 log2FC,Gene 9770,0.56
same,CKAP5 log2FC,Gene 9793,0.44
same,SFI1 log2FC,Gene 9814,0.17
same,RB1CC1 log2FC,Gene 9821,1.48
same,MELK log2FC,Gene 9833,0.25
same,GINS1 log2FC,Gene 9837,-0.84
same,MAGI2 log2FC,Gene 9863,0.33
same,TLK1 log2FC,Gene 9874,0.44
same,POM121 log2FC,Gene 9883,-0.58
same,KLHL21 log2FC,Gene 9903,0.49
same,DCLRE1A log2FC,Gene 9937,0.44
same,USP3 log2FC,Gene 9960,0.29
same,THOC1 log2FC,Gene 9984,0.38
same,DMTF1 log2FC,Gene 9988,0.44
same,CASP8AP2 log2FC,Gene 9994,0.61
same,PDCD6IP log2FC,Gene 10015,0.60
same,BCL2L11 log2FC,Gene 10018,0.09
same,CHAF1A log2FC,Gene 10036,-0.38
same,PARP3 log2FC,Gene 10039,0.48
same,TOM1L1 log2FC,Gene 10040,0.60
same,SMC4 log2FC,Gene 10051,0.76
same,ACTR2 log2FC,Gene 10097,-0.39
same,RAD50 log2FC,Gene 10111,0.41
same,KIF20A log2FC,Gene 10112,0.59
same,OPTN log2FC,Gene 10133,0.73
same,AKAP9 log2FC,Gene 10142,1.37
same,PSME3 log2FC,Gene 10197,-1.22
same,MPHOSPH9 log2FC,Gene 10198,0.40
same,MPHOSPH6 log2FC,Gene 10200,-0.88
same,MAEA log2FC,Gene 10296,-0.11
same,PAK4 log2FC,Gene 10298,-0.42
same,NPM2 log2FC,Gene 10361,-0.11
same,HMG20B log2FC,Gene 10362,0.52
same,CITED2 log2FC,Gene 10370,2.31
